SMILES strings stand for the structures. Where only a bound is given, the exact number is not on record here.

This passage reports IC50 and inhibition results from ChEMBL document CHEMBL3045300, “Synthesis of photolabile lac-acetogenin for photoaffinity labeling of mitochondrial complex I” (J Pestic Sci, 2006).

Experiment [1] in a line: Inhibition of Bos taurus (bovine) heart submitochondrial NADH complex 1 by NADH oxidase assay.
For experiment [2], the species on record is Bos taurus. Put plainly: Inhibition of Bos taurus (bovine) heart submitochondrial NADH complex 1 at 12 nM by NADH oxidase assay.

`CCCCCCCCCC[C@@H](O)[C@H]1CC[C@H]([C@H]2CC[C@H]([C@H](O)CCCCCCCCCC)O2)O1` [dleta-lac-Acetogenin]: it took 1.8 nM to reach half-maximal inhibition in experiment [1] (IC50). That is a single-digit nanomolar value.

With `O=C1N[C@H]2[C@H](CS[C@H]2CCCCC(=O)OCCCCCCC[C@@H](O)[C@H]2CC[C@H]([C@H]3CC[C@H]([C@H](O)CCCCCCOc4ccc(C5(C(F)(F)F)N=N5)cc4)O3)O2)N1`, the IC50 – broadly, the midpoint of a concentration-inhibition curve – in experiment [1] came to 3.9 nM. Besides, the inhibition (in general, the share of the control response that was lost under treatment) in experiment [2] is > 95%.
